The results in this text go back to patent publication US20170274006A1, “NASAL COMPOSITION COMPRISING MIXTURE OF HYALURONIC ACIDS AND SALINE SOLUTION” (SOFIBEL, priority 2014, published 2017).

In the assay the test system is HRV-A16. Nature of the assay: Anti-viral effect: inhibition of HRV-A16 replication on human airway epithelial cell culture. Particulars: applied one hour before infection; change in viral RNA. It counts as cell-based, rhinovirus. On the procedure:
The example 1 composition is tested according to the test of evaluation of the potential activity against HRV-A16 (a rhinovirus responsible for colds) on fully differentiated human airway epithelial cells culture. The compositions are first applied before infection for one hour and the replication is carried out for 4 hours. 3 rinsing steps with the formulations are carried out. The remaining is collected and the RNA is dosed after cell lysis. The same collecting step is carried out 24 hours after and the same dosing step is carried out. The percentage expressed the changes in viral RNA, resulting in the % of inhibition of HRV-A16 replication, leading to the anti-viral efficacy. The tested composition is tested against rupintrivir (a known antiviral compound, providing an almost complete response).

The structures appear in SMILES notation.

For `CCOC(=O)/C=C/[C@H](C[C@@H]1CCNC1=O)NC(=O)[C@@H](CC(=O)[C@@H](NC(=O)c1cc(C)on1)C(C)C)Cc1ccc(F)cc1` [Rupintrivir], the “Inhibition (%) of HRV-A16 replication” value is given as 99.62%.
